These results are taken from article PMC9106635, “Stimulation of the atypical chemokine receptor 3 (ACKR3) by a small-molecule agonist attenuates fibrosis in a preclinical liver but not lung injury model” (Cellular and Molecular Life Sciences: CMLS, 2022).

The subject of assay [1] is mouse CXCL12 plasma levels. The experiment in a line: Mouse CXCL12 plasma determination (Bio-Plex). The class given is in vivo. How it is done: CXCL12 plasma levels were determined using Bio-Plex Pro Mouse Chemokine SDF-1a/CXCL12 (Bio-Rad) according to the manufacturer’s protocol. Prior to the assay mouse plasma samples were centrifuged for 15 min at 1000×g at 4 °C to remove any particulates. A four-fold dilution series of mouse CXCL12, blank samples and 1:5 diluted plasma samples were prepared. A 1:1 mixture of magnetic beads (50 µL/well) and sample (50 µL/well) was added to the 96-well assay plate, which was then sealed and incubated (30 min at RT) on a plate shaker at 850 rpm protected from light. After washing three times with wash buffer 25 µL/well detection antibody was added and the plate was again incubated as described above. The plate was again washed three times (100 µL/well wash buffer) followed by the addition of streptavidin-PE (50 µL/well). The plate was sealed and incubated (10 min at RT) at 850 rpm protected from light. Finally, the plate was again washed three times and the magnetic beads were resuspended in fresh assay buffer (152 µL/well). The plate was sealed and shaken for an additional 30 s before being analyzed with the Bioplex 200 System. Data were analyzed with the Bio-Plex Manager Software.

The target in another assay is T1, hCCR5 (Homo sapiens, UniProt P51681).
T1 construct: expressed in transfected cells; host or cells: U87.CD4.CCR5
T1 sequence (P51681 whole entry): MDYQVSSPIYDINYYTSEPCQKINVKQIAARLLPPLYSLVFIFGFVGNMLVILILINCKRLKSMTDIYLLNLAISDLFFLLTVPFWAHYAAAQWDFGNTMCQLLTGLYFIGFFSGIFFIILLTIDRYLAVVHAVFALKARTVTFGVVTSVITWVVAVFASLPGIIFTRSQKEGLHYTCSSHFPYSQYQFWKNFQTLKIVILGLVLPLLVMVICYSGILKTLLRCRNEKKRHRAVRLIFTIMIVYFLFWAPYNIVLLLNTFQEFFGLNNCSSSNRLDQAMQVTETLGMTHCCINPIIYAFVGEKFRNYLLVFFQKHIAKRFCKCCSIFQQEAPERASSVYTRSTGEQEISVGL
The assay is described as follows: Ca2+ mobilization assay, U87.CD4.CCR5 cells, CCL5-induced. To be noted: antagonism of CCL5 response. The class given is cell-based. How it is done: The calcium (Ca^2+) mobilization assay was described in detail before. Briefly, U87.CD4.CXCR4 or U87.CD4.CCR5 cells (2 × 10^4 cells per well in DMEM/10% FBS/0.01 M HEPES) were seeded in gelatin-coated (Sigma-Aldrich; 0.1% gelatin in DPBS) black-walled 96-well plates and incubated overnight at 37 °C and 5% CO2. The next day, cells were loaded with the fluorescent Ca^2+ indicator Fluo-2 acetoxymethyl (AM) ester (4 μM final concentration; Abcam) and incubated at RT in the dark for 45 min. Then, cells were washed with assay buffer (see above) and subsequently incubated with different concentrations of compound for ~ 10 min prior to addition of 6.25 nM CXCL12 (in case of CXCR4) or 6.4 nM CCL5 (in case of CCR5). Fluctuations in intracellular Ca^2+ levels were measured in real time by the FLIPR Tetra® device (Molecular Devices) in all 96 wells simultaneously. The response (Relative Light Units, RLUs) over baseline was calculated (ScreenWorks 4.0® software, Molecular Devices) by dividing the RLUs by a base line value measured just before addition of CXCL12 or CCL5, respectively. Inhibition of the Ca^2+ response was determined taking into account negative (i.e., untreated cells without stimulation) and positive (i.e., untreated cells stimulated with either CXCL12 or CCL5) control samples.
For orientation: Calcium flux is commonly read through the fluorescence of an indicator in the cells.

The next assay deals with hCXCR4 (Homo sapiens, UniProt P61073). The assay is described as follows: CXCL12^AF647 competition binding, Jurkat cells. How it is done: Binding affinity to human (h)CXCR4 and human (h)ACKR3 was investigated with a competition binding assay using CXCL12^AF647 (Almac, UK) as the tracer molecule. Jurkat cells (human T lymphocytic cell line, hCXCR4 positive) or U87.CD4.ACKR3 cells (human glioblastoma cell line, hACKR3 positive) were resuspended in assay buffer [Hank’s Balanced Salt Solution (HBSS, Thermo Fisher Scientific), 20 mM HEPES buffer, 0.2% bovine serum albumin (Sigma-Aldrich), pH 7.4] at 3 × 10^5 cells per sample and treated with increasing concentrations of compound at RT for 15 min. A fixed amount of CXCL12^AF647 (2.9 nM and 1.45 nM in case of hCXCR4 and hACKR3, respectively) was added and cells were incubated at RT for 30 min protected from light. Cells were finally fixed in 1% paraformaldehyde in DPBS and the CXCL12^AF647 binding signal [i.e., mean fluorescence intensity (MFI)] was quantified by flow cytometry (FACSCanto™; Becton Dickinson). Data were analyzed with FlowJo® Software. For all samples the background MFI (i.e., autofluorescence of untreated and unlabeled cells) was subtracted. The percentage inhibition for each compound concentration was calculated relative to the positive control (i.e., untreated cells exposed to CXCL12^AF647 only). Four parameter non-linear curve fitting (GraphPad Prism 9.0.2) was used to determine the IC50 value for binding inhibition.
Sequence of hCXCR4 (P61073 whole entry): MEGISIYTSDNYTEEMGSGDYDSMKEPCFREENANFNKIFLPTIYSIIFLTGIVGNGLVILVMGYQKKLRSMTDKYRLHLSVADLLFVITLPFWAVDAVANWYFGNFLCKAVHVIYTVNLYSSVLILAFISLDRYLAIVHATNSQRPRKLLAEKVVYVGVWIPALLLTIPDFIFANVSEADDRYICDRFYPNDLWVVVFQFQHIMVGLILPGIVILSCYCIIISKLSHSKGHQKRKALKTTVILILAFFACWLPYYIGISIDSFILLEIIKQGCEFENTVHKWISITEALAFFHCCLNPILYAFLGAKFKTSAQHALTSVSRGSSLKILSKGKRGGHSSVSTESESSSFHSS

Regarding `CCc1ccn2ccnc2c1N1CCCN(C(CC(N)=O)C2CCN(C(=O)C3CC4CCC3O4)CC2)CC1` (centres unmarked) [compound 18a], the “increase of plasma CXCL12-levels” value in assay [1] (liver fibrosis model, day 7, 15 mg/kg/dose SC BID) is listed as “~ threefold”. For the same compound, the “plasma CXCL12 levels” value is on record as “led to increased CXCL12 levels” in assay [1] (liver fibrosis model, day 28, 15 mg/kg/dose SC BID) and “increased mouse CXCL12 plasma levels” in assay [1] (lung fibrosis model, day 21, 15 mg/kg/dose SC BID, vs vehicle (23% HPBCD)). For the same compound, the IC50 is over 40 µM against hCCR5 and over 4 µM on hCXCR4.

By IC50 is commonly meant the midpoint of a concentration-inhibition curve. Low values mean greater potency in that assay, high ones weaker potency in that assay.
